Measured values from patent publication US20230340012A1, “NATURAL AND SYNTHETIC COMPOUNDS FOR TREATING CANCER AND OTHER DISEASES” (PACIFIC ARROW LIMITED, priority 2009, published 2023).

Columns and labels:
Capan = test: MTT assay, pancreas (Capan); type: cell-based, human
Method: (§1) Cells. HTB-9 (bladder), HeLa-S3 (cervix), DU145 (prostate), H460 (lung), MCF-7 (breast), K562 (leukemia), HCT116 (colon), HepG2 (liver), U2OS (bone), T98G (brain), SK-MEL-5 (Skin) and OVCAR 3, ES2 (ovary), Pancreas (Capan), Mouth (KB), Kidney(A498).
(§2) MTT Assay. The procedure for MTT assay followed the method described by Carmichael et al. (1987) with modifications. The cells were seeded into a 96-well plate at for 24 hours before drug-treatment. The cells were then exposed to the drugs for 48, 72, or 96 hours. After the drug-treatment, MTT (0.5 mg/mL) was added to cultures and incubated for an hour. The formazan (product of the reduction of tetrazolium by viable cells) formed and was dissolved with DMSO and the O.D. at 490 nm, and was measured by an ELISA reader. The MTT level of the cells before drug-treatment was also measured (T0). The % cell-growth (%G) is calculated as: %G = (TD-T0 / TC-T0) x 100(1), where TC or TD represents O.D. readings of control or drug-treated cells. When T0 > TD, then the cytotoxicity (LC) expressed as % of the control is calculated as: %LC = (TD-T0 / T0) × 100(2).
• A. Cells: Capan cells are derived from Human pancreas carcinoma (pancreas). Cells were grown in RPMI 1640 medium supplemented with 10% FCS, antibiotics and glutamine. 10000 cells were seeded in a well (96-welled plate) for one day before drug-treatment • B. Drug treatment: • -- Drug: Tig-S (stored as a 1000x stock solution in DMSO) was used. • -- Drug concentration used: from 0.15 - 20 ug/ml. • -- Drug-treatment was carried out for 3 days. • C. At the end of the drug-treatment, cytotoxic test was performed with MTT assay. The percentage of drug-treated cells’ growth as compared to those of the no drug control is determined.

T98G = test: MTT assay, brain (T98G); type: cell-based, human
Method: as §1, §2

cancer cells = test: Inhibition of cancer growth, cancer invasion, cell invasion or cancer cell invasion; type: cell-based
From the text: The program is based on our purification methods and biological assays including the MTT assay. See International Application No. PCT/US05/31900, filed Sep. 7, 2005, U.S. Serial No. 11/289,142, filed Nov. 28, 2005, and U.S. Serial No. 11/131551, filed May 17, 2005, and PCT/US2008/002086, 1188-ALA-PCT, filed Feb. 15, 2008, 12/344,682, 1020-B1-US, filed Dec. 29, 2008. The details of Analysis of gene expression of ES2 cells after Y-treatment by Microarray, Data Analysis Methods and Western blot in PCT/US2008/002086, 1188-ALA-PCT, filed Feb. 15, 2008, and the cell invasion experiments methods in International Application PCT/US2010/0042240, filed Jul. 16, 2010.

U2OS = test: MTT assay, bone (U2OS); type: cell-based, human
Method: as §1, §2

OVCAR3 = test: MTT assay, ovary (OVCAR3); type: cell-based, human; details: MTT
Method: as §1, §2

DU145 = test: MTT assay, prostate (DU145); type: cell-based, human
Method: as §1, §2

HepG2 = test: MTT assay, liver (HepG2); type: cell-based, human
Method: as §1, §2

H460 = test: MTT assay, lung (H460); type: cell-based, human; details: MTT
Method: as §1, §2
Methods: • A. Cells • -- H460 cells are derived from a Human Lung large cell carcinoma. Cells were grown in RPMI 1640 medium supplemented with 10% FCS, antibiotics and glutamine. 5000 cells were seeded in a well (96-welled plate) for one day before drug-treatment • B. Drug treatment: • -- Drug: Tig-S (stored as a 1000x stock solution in DMSO) was used. • -- Drug concentration used: from 0.15 - 20 ug/ml. • -- Drug-treatment was carried out for 1, 2 and 4 days. For the 4 days incubation, cells were fed with fresh medium (with drug) on day 2. • C. At the end of the drug-treatment, cytotoxic test was performed with MTT assay. Results: • 1. Tig-S inhibits H460 cells’ growth with the IC50 of drug 3 ug/ml. • 2. […] cells growth inhibition was observed beyond drug 5 ug/ml. • 3. No dead cell was found at drug concentration in 20 ug/ml.

HTB-9 = test: MTT assay, bladder (HTB-9); type: cell-based, human
Method: as §1, §2

ES2 cells = test: Inhibition of cell adhesion, ES2; type: cell-based, human; details: for ES2 cells attached to flasks compared to no drug controls / unattached cells alive: 5 ug/ml; for ES2 cells attached to flasks compared to no drug controls: 5 hours; for unattached cells alive: trypan Blue exclusion; for unattached cells alive / cells attached to flasks: ES2 or Hey8A; for cells attached to flasks: 10 ug/ml
Method: (§3) Methods and Results. ES2 or Hey8A cells were plated in T25 flasks with medium containing 5 ug/ml of compounds selected from structure (2A) including E4A-Tig-R, E4A-Tig-V, E4A-Tig-S, E4A-Tig-N, E4A-Tig-Q, E4A-Tig-T. Cultures were incubated for 5 hours. Attached cells were removed from flasks by trypsinization and the numbers/amounts were counted. Compared to no drug controls, 80 ± 4% of ES2 cells and 60 ± 4% of Hey8A cells were found attached to flasks under this condition. At 5 ug/ml of above compounds, over 90% of unattached cells are alive as determined by the trypan Blue exclusion assay and by their ability to re-attach to flasks when plating in medium without tested compounds. However, with 10 ug/ml tested compounds, less than 40% of cells attached to flasks and many of them are dead cells.

Fibronectin = Fibronectin secretion experiment (Western blot); type: cell-based; details: bladder, cervix, prostate, lung, breast, leukemia, colon, liver, bone, brain, skin, ovary, pancreas, mouth, kidney cells; 24 hours
Method: Western blot is applied in this invention as a method to detect the specific proteins in treated and untreated cells with compounds in this invention, wherein the cells are bladder, cervix, prostate, lung, breast, leukemia, colon, liver, bone, brain, Skin, ovary, Pancreas(Capan), Mouth(KB), Kidney.
Cells: targeted cells were grown in RPMI 1640 medium. 1.5 million cells were seeded in a T25 flask and grown for 24 hours before drug-treatment.
Drug-treatment: Cells cultures were replaced with fresh RPMI medium containing either 2.5 ul of DMSO (as control) [D]; or 10, 20, 30, 40, 80 ug/ml of tested compounds.
After 24 hours, aliquot of culture medium was taken out for Fibronectin determination (Western blot method).
Cell viability at 24 hours was determined by MTT assay. Cultures were replaced with RPMI medium (5 ml) with MTT and incubated for an hour. The formation of formazan was dissolved in 10 ml of DMSO and OD at 570 nm was measured (MTT units). Western Blot: Spent culture medium was mixed with SDS sample buffer, boiled for 3 minutes before loading to SDS gel. Samples were applied to a 6-10% SDS gel and electrophoresis was conducted with 100 volts for 2 hours. Protein was transferred to a nitrocellulose membrane electrophoretically. The nitrocellulose blot was incubated with the first antibody and second antibody (AP conjugated, Promega S3721). The immuno-bands were developed with BCIP/NBT color development system.
Determination of Western blot band intensity: The band-images of Western blot were captured with a digital camera and the intensity of bands was determined using “Image J” software.

SK-Mel-5 = test: MTT assay, skin (SK-Mel-5); type: cell-based, human
Method: as §1, §2

MCF-7 = test: MTT assay, breast (MCF-7); type: cell-based, human
Method: as §1, §2

K562 = test: MTT assay, leukemia (K562); type: cell-based, human
Method: as §1, §2

HeLa = test: MTT assay, cervix (HeLa); type: cell-based, human
Method: as §1, §2

Hey8A cells = test: Inhibition of cell adhesion, Hey8A; type: cell-based; details: 5 ug/ml, 5 hours
Method: as §3

A498 = test: MTT assay, kidney (A498); type: cell-based, human
Method: as §1, §2

HCT116 = test: MTT assay, colon (HCT116); type: cell-based, human
Method: as §1, §2

KB = test: MTT assay, mouth (KB); type: cell-based, human
Method: as §1, §2

ES2 = test: MTT assay, ovary (ES2); type: cell-based, human; details: MTT
Method: as §1, §2
Method: A. Cells • -WI38 is a Normal Lung fibroblast. Cells were grown in MEM medium supplemented with 10% FCS, antibiotics and glutamine. 20 K cells were seeded per well (96-welled plate) for one day before drug-treatment • -ES2 is an Ovary Clear cells carcinoma. Cells were grown in RPMI-1640 medium supplemented with 10% FCS, antibiotics and glutamine. 10 K cells were seeded per well (96-welled plate) for one day before drug-treatment.
B. Drug treatment: • -Drug: Tig-S. stored as 1000x stock solution in DMSO. • -Drug concentration used: from 0.15 - 20 ug/ml. • -Drug-treatment was carried out for 2 days (ES2) or 6 days (WI38). For the 6 days incubation, cells were fed with fresh medium (with drug) on day 3 and 5.
C. At the end of the drug-treatment, cytotoxic test was performed with MTT assay.

[1] = test system: ANGPT2, DDIT3, LIF and NFKB1Z; details: Real-time PCR; results in Table 19-21 of PCT/US09/34115; cited from earlier work
Erythrocytes (RBC) = test: The haemolytic assay; details: in words, no concentration given

| Compound | IC50 of pancreas (Capan) (Capan) [µg/mL] | IC50 of brain (T98G) (T98G) [µg/mL] | anti-cancer activity (cancer cells) | IC50 of bone (U2OS) (U2OS) [µg/mL] | IC50 of ovary (OVCAR3) (OVCAR3) [µg/mL] | IC50 of prostate (DU145) (DU145) [µg/mL] | IC50 of liver (HepG2) (HepG2) [µg/mL] | IC50 of lung (H460) (H460) [µg/mL] | IC50 of bladder (HTB-9) (HTB-9) [µg/mL] | ES2 cells attached to flasks compared to no drug controls (ES2 cells) [%] | unattached cells alive (ES2 cells) | cells attached to flasks (ES2 cells) | inhibition of fibronectin secretion (Fibronectin) | IC50 of skin (SK-Mel-5) (SK-Mel-5) [µg/mL] | IC50 of breast (MCF-7) (MCF-7) [µg/mL] | IC50 of leukemia (K562) (K562) [µg/mL] | IC50 of cervix (HeLa) (HeLa) [µg/mL] | Hey8A cells attached to flasks compared to no drug controls (Hey8A cells) [%] | IC50 of kidney (A498) (A498) [µg/mL] | IC50 of colon (HCT116) (HCT116) [µg/mL] | other results |
| --- | --- | --- | --- | --- | --- | --- | --- | --- | --- | --- | --- | --- | --- | --- | --- | --- | --- | --- | --- | --- | --- |
| CC=C(C)C(=O)OCC1(C)C(O)CCC2(C)C1CCC1(C)C2CC=C2C3CC(C)(C)C(O)C(OC(=O)C(C)=CC)C3(CO)C(O)CC21C (stereo not drawn) [Tig-Q] | 9 | 29 | have anti-cancer activities | 20 | 23 | 15 | 24 | 18 | 10 | 80 ± 4 | over 90% | less than 40% | 20-40% | 20 | 18 | 6 | 20 | 60 ± 4 | 13 | 22 | – |
| CC=C(C)C(=O)OCC1(C)C(OC(=O)C(C)=CC)CCC2(C)C1CCC1(C)C2CC=C2C3CC(C)(C)C(OC(=O)C(C)=CC)C(O)C3(CO)C(O)CC21C (stereo not drawn) [Tig-U] | 9 | 22 | – | 23 | 27 | 15 | 23 | 19 | 15 | – | – | – | – | 24 | 25 | 10 | 17 | – | 18 | 26 | IC50 of mouth (KB) (KB): 16 µg/mL; IC50 of ovary (ES2) (ES2): 17 µg/mL |
| CC=C(C)C(=O)OCC1(C)C(O)CCC2(C)C1CCC1(C)C2CC=C2C3CC(C)(C)C(OC(=O)C(C)=CC)C(O)C3(COC(=O)C(C)=CC)C(O)CC21C (stereo not drawn) [Tig-V] | – | 14 | have anti-cancer activities | 7 | 9 | 4 | – | 6.8 | 4 | 80 ± 4 | over 90% | less than 40% | 20-40% | 6 | 9 | 4 | 7 | 60 ± 4 | 4.8 | 8 | IC50 of mouth (KB) (KB): 4.5 µg/mL; IC50 of ovary (ES2) (ES2): 2 µg/mL |
| C/C=C(/C)C(=O)O[C@H]1[C@H](OC(=O)/C(C)=C\C)[C@@]2(CO)C(CC1(C)C)C1=CCC3[C@@]4(C)CC[C@H](O[C@@H]5OC(C(=O)O)[C@@H](O)[C@@H](O[C@@H]6O[C@@H](CO)[C@@H](O)C6O)C5O[C@@H]5OC(CO)[C@H](O)[C@@H](O)C5O)C(C)(C)C4CC[C@@]3(C)[C@]1(C)[C@@H](O)[C@H]2O (stereo partly drawn) [Compound Y, 3-O-[β-D-galactopyranosyl (1→2)]-α-L-arabinofuranosy (1→3)-β-D-glucuronopyranosyl-21,22-O-diangeloyl-3β, 15α, 16α, 21β, 22α, 28-hexahydroxyolean-12-ene] | – | – | – | – | – | – | – | – | – | – | – | – | – | – | – | – | – | – | – | – | expression of the genes ANGPT2, DDIT3, LIF and NFKB1Z [1]: increase |
| C/C=C(/C)C(=O)O[C@H]1[C@H](OC(=O)/C(C)=C\C)[C@@]2(CO)C(CC1(C)C)C1=CCC3[C@@]4(C)CC[C@H](O)C(C)(C)C4CC[C@@]3(C)[C@]1(C)[C@@H](O)[C@H]2O (stereo partly drawn) [ACH-Y3] | – | – | – | – | – | – | – | – | – | – | – | – | – | – | – | – | – | – | – | – | inhibiting cancer growth, cancer invasion, cell invasion or cancer cell invasion (cancer cells): has the ability to inhibit; expression of the genes ANGPT2, DDIT3, LIF and NFKB1Z [1]: increase; hemolytic activity (Erythrocytes (RBC)): less potent |
